The results in this text go back to patent US20230330254A1 (Regeneron Pharmaceuticals, Inc., priority 2022, published 2023).

Read-outs that look alike come from different tables or passages of the source. *1 amine or outer side, *2 acyl side, *3 side chain or, on linkers, in order; H or OH if unused. Where a SMILES comes first, the peptide text is derived from it. [ ]: non-standard residue; d: D form. The star is where a group is joined. Bip(2'-Et-4'-O(CH2)4NH2) = CCc1cc(OCCCCN[*:3])ccc1-c1ccc(C[C@H](N[*:1])C(=O)[*:2])cc1; Bip(2'-Et,4'-O(CH2)4N3) = CCc1cc(OCCCCN=[N+]=[N-])ccc1-c1ccc(C[C@H](N)C(=O)O)cc1; X10 = O=C(NCCOCCOCCOCCOC(=O)*)OC[C@@H]1[C@@H]2CCc3[nH]nnc3CC[C@@H]21; Malonyl(2,2-Me2,histaminyl) = CC(C)(C(=O)NCCc1cnc[nH]1)C(=O)*; Nva(5-(3,5-Me2Ph)) = Cc1cc(C)cc(CCC[C@H](N)C(=O)O)c1; Ala(1H-tetrazol-5-yl) = N[C@@H](Cc1nnn[nH]1)C(=O)O; αMePhe(2-F) = C[C@](N)(Cc1ccccc1F)C(=O)O Bounds are passed on as bounds.

A short description of the series: Plasma stability of payloads and linker-payloads, human plasma. In kind it is in vitro ADME. Particulars: plasma, 2 μM, 37° C.; for half-life at 2 µM: read-out: Human plasma stability assay T½ (converted). The method, then: The plasma stability of payloads and linker payloads of the disclosure were measured. For the assay, pooled frozen plasma (human, mouse or monkey) was thawed in cold water or a 37° C. water bath prior to experiment. Plasma was centrifuged at 4000 rpm for 5 min if any clots were observed, they were subsequently removed. If required, the pH was adjusted to 7.4±0.1. For the preparation of compounds and positive controls, a 1 mM intermediate solution was prepared by diluting 10 μL of their stock solution with 90 μL DMSO; a 1 mM intermediate solution of the positive control (Propantheline) was prepared by diluting 10 μL of its stock solution with 90 μL ultrapure water. […] 98 μL of plasma was spiked with 2 μL of dosing solution (100 μM) to achieve the final concentration of 2 μM in duplicate. Samples were then incubated at 37° C. in a water bath. […] At each time point, 400 μL of stop solution (200 ng/mL tolbutamide plus 200 ng/mL labetalol in 50% ACN/MeOH) was added to precipitate protein and mixed thoroughly. Sample plates were then centrifuged at 4,000 rpm for 10 min. An aliquot of supernatant (50 μL) was transferred from each well and mixed with 100 μL ultrapure water. The samples were then shaken at 800 rpm for approximately 10 min before submitting for LC-MS/MS analysis.

For `CCc1cc(OCCCCn2cc(COCCOCCOCCOCCNC(=O)OC[C@@H]3[C@@H]4CCc5[nH]nnc5CC[C@@H]43)nn2)ccc1-c1ccc(C[C@H](NC(=O)[C@H](CC(=O)O)NC(=O)[C@H](CO)NC(=O)[C@@H](NC(=O)[C@](C)(Cc2ccccc2F)NC(=O)[C@@H](NC(=O)CNC(=O)[C@H](Cc2nn[nH]n2)NC(=O)C(C)(C)C(=O)NCCc2cnc[nH]2)[C@@H](C)O)[C@@H](C)O)C(=O)N[C@@H](CCCc2cc(C)cc(C)c2)C(N)=O)cc1` [LP24, triazole-BCN-PEG4-triazole-P8], under “pH 7.4, tested time D (7 days)”, the half-life at 2 µM is over 405 h.

Regarding `CCc1cc(OCCCCNC(=O)OCCOCCOCCOCCNC(=O)OC[C@@H]2[C@@H]3CCc4[nH]nnc4CC[C@@H]32)ccc1-c1ccc(C[C@H](NC(=O)[C@H](CC(=O)O)NC(=O)[C@H](CO)NC(=O)[C@@H](NC(=O)[C@](C)(Cc2ccccc2F)NC(=O)[C@@H](NC(=O)CNC(=O)[C@H](Cc2nn[nH]n2)NC(=O)C(C)(C)C(=O)NCCc2cnc[nH]2)[C@@H](C)O)[C@@H](C)O)C(=O)N[C@@H](CCCc2cc(C)cc(C)c2)C(N)=O)cc1` [LP25, triazole-BCN-PEG4-carba-mate-P9] ({Malonyl(2,2-Me2,histaminyl)}-[Ala(1H-tetrazol-5-yl)]GT[αMePhe(2-F)]TSD[Bip(2'-Et-4'-O(CH2)4NH2)](X10)[Nva(5-(3,5-Me2Ph))]-NH2), where the note is “pH 7.4, tested time D (7 days)”, the half-life at 2 µM was 285 h.

As to `CCc1cc(OCCCCNC(=O)[C@H](CO)NC(=O)CNC(=O)CNC(=O)CNC(=O)CNC(=O)CCC(=O)N2Cc3ccccc3-c3nn[nH]c3-c3ccccc32)ccc1-c1ccc(C[C@H](NC(=O)[C@H](CC(=O)O)NC(=O)[C@H](CO)NC(=O)[C@@H](NC(=O)[C@](C)(Cc2ccccc2F)NC(=O)[C@@H](NC(=O)CNC(=O)[C@H](Cc2nn[nH]n2)NC(=O)C(C)(C)C(=O)NCCc2cnc[nH]2)[C@@H](C)O)[C@@H](C)O)C(=O)N[C@@H](CCCc2cc(C)cc(C)c2)C(N)=O)cc1` [LP26, triazole- DIBAC- G4S-P9], the half-life at 2 µM (pH 7.4, tested time D (7 days)) was over 405 h.

For the compound `CCc1cc(OCCCCn2cc(COCCOCCOCCOCCOCCOCCOCCOCCNC(=O)CCC(=O)N3Cc4ccccc4-c4nn[nH]c4-c4ccccc43)nn2)ccc1-c1ccc(C[C@H](NC(=O)[C@H](CC(=O)O)NC(=O)[C@H](CO)NC(=O)[C@@H](NC(=O)C(C)(Cc2ccccc2F)NC(=O)[C@@H](NC(=O)CNC(=O)[C@H](Cc2nn[nH]n2)NC(=O)C(C)(C)C(=O)NCCc2cnc[nH]2)[C@@H](C)O)[C@@H](C)O)C(=O)N[C@@H](CCCc2cc(C)cc(C)c2)C(N)=O)cc1` (stereo partly shown) [LP28, triazole-DIBAC-suc-PEG8-triazole-P8], the half-life at 2 µM (pH 7.4, tested time C (3 days)) is over 173 h.

With `CCc1cc(OCCCCn2cc(COCCOCCOCCOCCOCCOCCOCCOCCN)nn2)ccc1-c1ccc(C[C@H](NC(=O)[C@H](CC(=O)O)NC(=O)[C@H](CO)NC(=O)[C@@H](NC(=O)[C@](C)(Cc2ccccc2F)NC(=O)[C@@H](NC(=O)CNC(=O)[C@H](Cc2nn[nH]n2)NC(=O)C(C)(C)NC(=O)[C@@H](N)Cc2ccc(O)cc2)[C@@H](C)O)[C@@H](C)O)C(=O)N[C@@H](CCCc2cc(C)cc(C)c2)C(N)=O)cc1` [LP29, NH2-PEG8-triazole-P19], the half-life at 2 µM (pH 7.4, tested time C (3 days)) was over 173 h.

Consider `CCc1cc(OCCCCn2cc(COCCOCCOCCOCCOCCOCCOCCOCCC(=O)N[C@@H](CC(C)C)C(=O)N3CCC[C@@H]3C(=O)N[C@@H](CCC(=O)O)C(=O)N[C@H](C(=O)NCC(=O)NCC(=O)O)[C@@H](C)O)nn2)ccc1-c1ccc(C[C@H](NC(=O)[C@H](CC(=O)O)NC(=O)[C@H](CO)NC(=O)[C@@H](NC(=O)[C@](C)(Cc2ccccc2F)NC(=O)[C@@H](NC(=O)CNC(=O)[C@H](Cc2nn[nH]n2)NC(=O)C(C)(C)C(=O)NCCc2cnc[nH]2)[C@@H](C)O)[C@@H](C)O)C(=O)N[C@@H](CCCc2cc(C)cc(C)c2)C(N)=O)cc1` [LP34, GGT EPL-PEG8-triazole-P8], for which the half-life (tested time C (3 days), read-out: Human plasma stability assay T½) was over 173 h.

With `CCc1cc(OCCCCN=[N+]=[N-])ccc1-c1ccc(C[C@H](NC(=O)[C@H](CC(=O)O)NC(=O)[C@H](CO)NC(=O)[C@@H](NC(=O)[C@](C)(Cc2ccccc2F)NC(=O)[C@@H](NC(=O)CNC(=O)[C@H](Cc2nn[nH]n2)NC(=O)C(C)(C)C(=O)NCCc2cnc[nH]2)[C@@H](C)O)[C@@H](C)O)C(=O)N[C@@H](CCCc2cc(C)cc(C)c2)C(=O)O)cc1` [P41] ({Malonyl(2,2-Me2,histaminyl)}-[Ala(1H-tetrazol-5-yl)]GT[αMePhe(2-F)]TSD[Bip(2'-Et,4'-O(CH2)4N3)][Nva(5-(3,5-Me2Ph))]-OH), for the setting “pH 7.4, tested time A (1 day per footnote)”, the half-life at 2 µM was over 57.8 h.
